Data reported in PMC8355244, “A fragment-based approach identifies an allosteric pocket that impacts malate dehydrogenase activity” (Communications Biology, 2021).

Biological target: T1, PfMDH (Plasmodium falciparum, UniProt Q6VVP7)
T1 construct: The full-length WT PfMDH gene was cloned into pETM-13; made in house; host or cells: E. coli Rosetta 2 (DE3) pLysS
Test: Thermal shift assay (TSA)
Type: binding
Conditions: for TSA melting curve raw signal: triplicate columns; for TSA melting curve raw fluorescence signal: three replicate columns
Outline: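 10 μM PfMDH with 1 mM compound in 100 mM Na–phosphate pH 7.4, 400 mM NaCl, 10× Sypro Orange; 1% DMSO controls. Melting inflection points taken as Tm; shifts >1 °C read as stabilization, negative shifts as destabilization.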

T1 sequence (Q6VVP7 entry or part of it): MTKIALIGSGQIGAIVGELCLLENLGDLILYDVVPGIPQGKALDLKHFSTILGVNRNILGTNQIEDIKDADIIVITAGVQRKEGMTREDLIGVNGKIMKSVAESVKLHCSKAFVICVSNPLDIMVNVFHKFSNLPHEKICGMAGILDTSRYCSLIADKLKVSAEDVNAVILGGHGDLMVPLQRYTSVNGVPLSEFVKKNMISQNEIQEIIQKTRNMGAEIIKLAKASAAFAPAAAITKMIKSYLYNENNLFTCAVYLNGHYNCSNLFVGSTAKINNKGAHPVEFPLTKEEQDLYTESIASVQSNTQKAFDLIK

## Nc1nc(-c2cccc(C(F)(F)F)c2)cs1 [4PA-CF3]
Temperature 25
  TSA melting curve raw signal: 3528,09586476992
Temperature 25.5
  TSA melting curve raw signal: 3521,76972099321
Temperature 26
  TSA melting curve raw signal: 3515,44357721651
Temperature 26.5
  TSA melting curve raw signal: 3509,11743343981
Temperature 27
  TSA melting curve raw signal: 3502,7912896631
Temperature 27.5
  TSA melting curve raw signal: 3496,46514588642
Temperature 28
  TSA melting curve raw signal: 3490,13900210971
Temperature 28.5
  TSA melting curve raw signal: 3483,6143624971
Temperature 29
  TSA melting curve raw signal: 3476,38988350175
Temperature 29.5
  TSA melting curve raw signal: 3468,17176134374
Temperature 30
  TSA melting curve raw signal: 3458,89345122044
Temperature 30.5
  TSA melting curve raw signal: 3449,61666086928
Temperature 31
  TSA melting curve raw signal: 3441,08813548452
Temperature 31.5
  TSA melting curve raw signal: 3434,74480463775
Temperature 32
  TSA melting curve raw signal: 3431,63306422988
Temperature 32.5
  TSA melting curve raw signal: 3433,04755783933
Temperature 33
  TSA melting curve raw signal: 3439,08846015031
Temperature 33.5
  TSA melting curve raw signal: 3450,49167244057
Temperature 34
  TSA melting curve raw signal: 3467,07326310557
Temperature 34.5
  TSA melting curve raw signal: 3489,23124555062
Temperature 35
  TSA melting curve raw signal: 3516,74965348479
Temperature 35.5
  TSA melting curve raw signal: 3550,12307997406
Temperature 36
  TSA melting curve raw signal: 3588,6701161146
Temperature 36.5
  TSA melting curve raw signal: 3632,52278047685
Temperature 37
  TSA melting curve raw signal: 3681,13015232277
Temperature 37.5
  TSA melting curve raw signal: 3734,10747497721
Temperature 38
  TSA melting curve raw signal: 3790,66694872421
Temperature 38.5
  TSA melting curve raw signal: 3851,32307413445
Temperature 39
  TSA melting curve raw signal: 3915,60016677996
Temperature 39.5
  TSA melting curve raw signal: 3983,88715310611
Temperature 40
  TSA melting curve raw signal: 4056,33336034943
Temperature 40.5
  TSA melting curve raw signal: 4133,49326014565
Temperature 41
  TSA melting curve raw signal: 4215,01497025314
Temperature 41.5
  TSA melting curve raw signal: 4301,78127396551
Temperature 42
  TSA melting curve raw signal: 4393,43575455581
Temperature 42.5
  TSA melting curve raw signal: 4490,37169124646
Temperature 43
  TSA melting curve raw signal: 4592,69941738304
Temperature 43.5
  TSA melting curve raw signal: 4701,32966638299
Temperature 44
  TSA melting curve raw signal: 4815,85327556672
Temperature 44.5
  TSA melting curve raw signal: 4937,62413315095
Temperature 45
  TSA melting curve raw signal: 5067,14562465788
Temperature 45.5
  TSA melting curve raw signal: 5204,83599333482
Temperature 46
  TSA melting curve raw signal: 5349,70118139591
Temperature 46.5
  TSA melting curve raw signal: 5501,84311892238
Temperature 47
  TSA melting curve raw signal: 5660,17327748149
Temperature 47.5
  TSA melting curve raw signal: 5824,5723421521
Temperature 48
  TSA melting curve raw signal: 5994,36303099828
Temperature 48.5
  TSA melting curve raw signal: 6169,71492788648
Temperature 49
  TSA melting curve raw signal: 6349,90301622462
Temperature 49.5
  TSA melting curve raw signal: 6533,67708046246
Temperature 50
  TSA melting curve raw signal: 6718,43346697938
Temperature 50.5
  TSA melting curve raw signal: 6903,01197489117
Temperature 51
  TSA melting curve raw signal: 7086,14140810373
Temperature 51.5
  TSA melting curve raw signal: 7267,40973427596
Temperature 52
  TSA melting curve raw signal: 7446,07311090688
Temperature 52.5
  TSA melting curve raw signal: 7623,17790419487
Temperature 53
  TSA melting curve raw signal: 7798,35186729642
Temperature 53.5
  TSA melting curve raw signal: 7971,57187818721
Temperature 54
  TSA melting curve raw signal: 8142,18042787582
Temperature 54.5
  TSA melting curve raw signal: 8310,47539211232
Temperature 55
  TSA melting curve raw signal: 8475,6367965612
Temperature 55.5
  TSA melting curve raw signal: 8637,15264587991
Temperature 56
  TSA melting curve raw signal: 8794,24720730786
Temperature 56.5
  TSA melting curve raw signal: 8944,76644495546
Temperature 57
  TSA melting curve raw signal: 9087,23982318044
Temperature 57.5
  TSA melting curve raw signal: 9218,83300839243
Temperature 58
  TSA melting curve raw signal: 9336,46564098951
Temperature 58.5
  TSA melting curve raw signal: 9436,67708833889
Temperature 59
  TSA melting curve raw signal: 9517,94306567009
Temperature 59.5
  TSA melting curve raw signal: 9577,90589829803
Temperature 60
  TSA melting curve raw signal: 9615,75986877433
Temperature 60.5
  TSA melting curve raw signal: 9632,47637998784
Temperature 61
  TSA melting curve raw signal: 9629,58012627007
Temperature 61.5
  TSA melting curve raw signal: 9608,67157988917
Temperature 62
  TSA melting curve raw signal: 9572,5500875914
Temperature 62.5
  TSA melting curve raw signal: 9524,64551903011
Temperature 63
  TSA melting curve raw signal: 9467,03768559296
Temperature 63.5
  TSA melting curve raw signal: 9402,51349679748
Temperature 64
  TSA melting curve raw signal: 9333,57184164816
Temperature 64.5
  TSA melting curve raw signal: 9261,62563971527
Temperature 65
  TSA melting curve raw signal: 9187,49083186044
Temperature 65.5
  TSA melting curve raw fluorescence signal: 9112,23978010048
Temperature 66
  TSA melting curve raw fluorescence signal: 9036,14068242361
Temperature 66.5
  TSA melting curve raw fluorescence signal: 8959,64465212255
Temperature 67
  TSA melting curve raw fluorescence signal: 8882,7175782058
Temperature 67.5
  TSA melting curve raw fluorescence signal: 8805,44643012468
Temperature 68
  TSA melting curve raw fluorescence signal: 8728,2852860298
Temperature 68.5
  TSA melting curve raw fluorescence signal: 8651,13021944227
Temperature 69
  TSA melting curve raw fluorescence signal: 8573,32870649645
Temperature 69.5
  TSA melting curve raw fluorescence signal: 8495,58180428762
Temperature 70
  TSA melting curve raw fluorescence signal: 8418,5896254098
Temperature 70.5
  TSA melting curve raw fluorescence signal: 8341,60149220391
Temperature 71
  TSA melting curve raw fluorescence signal: 8265,01816022305
Temperature 71.5
  TSA melting curve raw fluorescence signal: 8189,69867306721
Temperature 72
  TSA melting curve raw fluorescence signal: 8115,16555879573
Temperature 72.5
  TSA melting curve raw fluorescence signal: 8040,74958248259
Temperature 73
  TSA melting curve raw fluorescence signal: 7967,12767450409
Temperature 73.5
  TSA melting curve raw fluorescence signal: 7893,92662128296
Temperature 74
  TSA melting curve raw fluorescence signal: 7821,33430208039
Temperature 74.5
  TSA melting curve raw fluorescence signal: 7749,70992701054
Temperature 75
  TSA melting curve raw fluorescence signal: 7679,18807246448
Temperature 75.5
  TSA melting curve raw fluorescence signal: 7609,86094414536
Temperature 76
  TSA melting curve raw fluorescence signal: 7542,08165155543
Temperature 76.5
  TSA melting curve raw fluorescence signal: 7475,0463497461
Temperature 77
  TSA melting curve raw fluorescence signal: 7409,10099573983
Temperature 77.5
  TSA melting curve raw fluorescence signal: 7344,43096825342
Temperature 78
  TSA melting curve raw fluorescence signal: 7280,55827608543
Temperature 78.5
  TSA melting curve raw fluorescence signal: 7217,66024170967
Temperature 79
  TSA melting curve raw fluorescence signal: 7156,47260834302
Temperature 79.5
  TSA melting curve raw fluorescence signal: 7096,07409325447
Temperature 80
  TSA melting curve raw fluorescence signal: 7036,61045690039
Temperature 80.5
  TSA melting curve raw fluorescence signal: 6978,28713486927
Temperature 81
  TSA melting curve raw fluorescence signal: 6920,87145232924
Temperature 81.5
  TSA melting curve raw fluorescence signal: 6863,63731764689
Temperature 82
  TSA melting curve raw fluorescence signal: 6807,28937755567
Temperature 82.5
  TSA melting curve raw fluorescence signal: 6751,29328141381
Temperature 83
  TSA melting curve raw fluorescence signal: 6695,78422169472
Temperature 83.5
  TSA melting curve raw fluorescence signal: 6641,03413791343
Temperature 84
  TSA melting curve raw fluorescence signal: 6587,1569082437
Temperature 84.5
  TSA melting curve raw fluorescence signal: 6533,84298175497
Temperature 85
  TSA melting curve raw fluorescence signal: 6481,33407729233
Temperature 85.5
  TSA melting curve raw fluorescence signal: 6429,30339853042
Temperature 86
  TSA melting curve raw fluorescence signal: 6377,40763821637
Temperature 86.5
  TSA melting curve raw fluorescence signal: 6325,81148238932
Temperature 87
  TSA melting curve raw fluorescence signal: 6274,52300647726
Temperature 87.5
  TSA melting curve raw fluorescence signal: 6222,85213595833
Temperature 88
  TSA melting curve raw fluorescence signal: 6171,16491119654
Temperature 88.5
  TSA melting curve raw fluorescence signal: 6119,12156951999
Temperature 89
  TSA melting curve raw fluorescence signal: 6066,61924971662
Temperature 89.5
  TSA melting curve raw fluorescence signal: 6013,73939632859
Temperature 90
  TSA melting curve raw fluorescence signal: 5961,79604131278
Temperature 90.5
  TSA melting curve raw fluorescence signal: 5910,31866711244
Temperature 91
  TSA melting curve raw fluorescence signal: 5859,96386783167
Temperature 91.5
  TSA melting curve raw fluorescence signal: 5810,60393842017
Temperature 92
  TSA melting curve raw fluorescence signal: 5761,96047868944
Temperature 92.5
  TSA melting curve raw fluorescence signal: 5713,35101332965
Temperature 93
  TSA melting curve raw fluorescence signal: 5664,77915169386
Temperature 93.5
  TSA melting curve raw fluorescence signal: 5615,83290965879
Temperature 94
  TSA melting curve raw fluorescence signal: 5566,24729616446
Temperature 94.5
  TSA melting curve raw fluorescence signal: 5516,6627489992
Temperature 95
  TSA melting curve raw fluorescence signal: 5465,82751388956
